Test [1] deals with T1, cGMP-abhängigen Proteinkinase (G-Kinase) (Bos taurus, UniProt P00516).
T1 sequence (P00516 2-671): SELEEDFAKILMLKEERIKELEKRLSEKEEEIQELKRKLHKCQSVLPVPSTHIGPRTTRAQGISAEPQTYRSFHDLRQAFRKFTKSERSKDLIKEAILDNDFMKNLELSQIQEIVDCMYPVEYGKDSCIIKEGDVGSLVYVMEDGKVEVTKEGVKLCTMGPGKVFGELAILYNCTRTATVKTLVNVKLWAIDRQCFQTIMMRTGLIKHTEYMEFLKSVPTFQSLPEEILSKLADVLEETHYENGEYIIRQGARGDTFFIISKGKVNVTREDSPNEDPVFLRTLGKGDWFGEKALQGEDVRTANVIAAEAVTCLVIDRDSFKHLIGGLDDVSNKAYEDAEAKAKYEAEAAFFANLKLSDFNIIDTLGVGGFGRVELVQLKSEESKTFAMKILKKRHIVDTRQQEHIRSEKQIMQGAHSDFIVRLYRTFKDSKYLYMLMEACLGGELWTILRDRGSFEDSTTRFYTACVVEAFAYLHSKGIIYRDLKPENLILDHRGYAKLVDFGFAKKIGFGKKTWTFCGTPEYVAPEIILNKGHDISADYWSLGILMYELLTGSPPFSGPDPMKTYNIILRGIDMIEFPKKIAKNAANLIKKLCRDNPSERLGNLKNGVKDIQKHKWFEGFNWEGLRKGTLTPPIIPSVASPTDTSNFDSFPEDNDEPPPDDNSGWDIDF
Kind of test: Inhibition of cGMP-dependent protein kinase (literature method). The settings on record: read-out: Inhibierung von Proteinkinasen (IC50, µM) G-Kinase. It is filed as biochemical. The text has this: (§1) Die Bestimmung der Inhibierung von A-, G-, MLC- oder T-Kinase erfolgte nach den in der Literatur beschriebenen Verfahren (Gill, G.N., Walton M., Advances in cyclic nucleotide research, Vol. 10, herausgegeben von G. Brooker und G.A. Robinson, Raven Press, New York, 1979; Eur. J. Biochem. 1986, 158, 203; Biochem. J. 1984, 218, 863; Analyt. Biochem. 1983, 135, 37; Mol. Immunol. 1989, 26, 897).

The target in test [2] is tyrosinspezifischen Kinase (T-Kinase). As to the kind of experiment: Inhibition of tyrosine-specific kinase (literature method). The settings on record: read-out: Inhibierung von Proteinkinasen (IC50, µM) T-Kinase. Type of test: biochemical.
Source text: as §1

The target in test [3] is Myosin Light Chain Kinase (MLC-Kinase) (Gallus gallus, UniProt P11799). Kind of test: Inhibition of myosin light chain kinase (literature method). It is filed as biochemical. The settings on record: read-out: Inhibierung von Proteinkinasen (IC50, µM) MLC-Kinase.
Chain of Myosin Light Chain Kinase (MLC-Kinase) (P11799 935-1906): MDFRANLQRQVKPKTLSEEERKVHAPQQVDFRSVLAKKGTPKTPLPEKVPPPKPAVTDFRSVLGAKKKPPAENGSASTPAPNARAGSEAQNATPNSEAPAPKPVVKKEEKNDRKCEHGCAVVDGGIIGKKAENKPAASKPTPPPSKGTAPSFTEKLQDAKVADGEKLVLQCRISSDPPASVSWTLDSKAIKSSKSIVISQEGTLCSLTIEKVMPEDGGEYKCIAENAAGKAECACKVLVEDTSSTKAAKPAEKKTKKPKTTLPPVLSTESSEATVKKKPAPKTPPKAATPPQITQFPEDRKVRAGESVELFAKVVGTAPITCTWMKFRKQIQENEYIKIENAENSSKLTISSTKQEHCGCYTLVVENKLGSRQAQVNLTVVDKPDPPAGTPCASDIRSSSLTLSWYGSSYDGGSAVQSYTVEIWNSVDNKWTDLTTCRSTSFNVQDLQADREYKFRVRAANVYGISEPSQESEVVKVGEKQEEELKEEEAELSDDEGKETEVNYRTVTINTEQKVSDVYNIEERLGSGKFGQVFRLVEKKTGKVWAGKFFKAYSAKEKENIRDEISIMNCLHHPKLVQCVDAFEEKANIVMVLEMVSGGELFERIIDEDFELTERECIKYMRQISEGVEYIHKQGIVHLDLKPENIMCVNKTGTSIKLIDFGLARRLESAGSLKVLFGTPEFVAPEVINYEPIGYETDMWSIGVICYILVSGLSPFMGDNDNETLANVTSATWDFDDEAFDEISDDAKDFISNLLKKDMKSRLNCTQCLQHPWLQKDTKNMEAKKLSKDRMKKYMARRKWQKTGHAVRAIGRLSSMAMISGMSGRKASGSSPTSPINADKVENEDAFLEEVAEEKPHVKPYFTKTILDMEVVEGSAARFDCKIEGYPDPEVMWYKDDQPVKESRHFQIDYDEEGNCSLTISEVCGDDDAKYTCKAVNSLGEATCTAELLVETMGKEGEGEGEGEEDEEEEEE
Source text: as §1

Another test concerns the target Proteinkinase C (PKC). As to the kind of experiment: Enzyme assay: inhibition of protein kinase C activated with phosphatidylserine and diacylglycerol (according to EP-A-0 255 126). It is filed as biochemical.
For test [4], the target named is tyrosinspezifischen Kinase (T-Kinase). The settings on record: read-out: Inhibierung von Proteinkinasen (IC50, µM) T-Kinase; value marked *: J. Antibiot. 1987, 40, 1782; cited from earlier work.

pIC50: −log10 of the molar value. Like-named read-outs stand apart in the source and are kept apart here.

Consider 2 compounds from patent EP0434057B1, “Indolocarbazole derivatives, processes for their preparation and their use” (GÖDECKE AKTIENGESELLSCHAFT, priority 1989, dated 1991).

As to `Cn1c2ccccc2c2c3c(c4c5ccccc5n(CCC#N)c4c21)CNC3=O` [Beispiel 2, 12-(2-Cyanoethyl)-6,7,12,13-tetrahydro-13-methyl-5-oxo-5H-indolo[2,3-a]pyrrolo[3,4-c]carbazol], the IC50 (commonly the midpoint of a concentration-inhibition curve) amounted to 6.2 µM in test [1]; 25 µM in test [2]; 5.8 µM in test [3]; 0.02 µM at Proteinkinase C (PKC) (read-out: Inhibierung von Proteinkinasen (IC50, µM) PKC). Besides, the pIC50 on Proteinkinase C (PKC) (PKC activated with Phosphatidylserin and Diacylglycerol, read-out: 50%ige Inhibierung bei einer Konzentration von) was 7.70.

Regarding `CN[C@@H]1C[C@H]2O[C@@](C)([C@@H]1OC)n1c3ccccc3c3c4c(c5c6ccccc6n2c5c31)C(=O)NC4` [Staurosporin], in test [4], the IC50 is 0.006 µM.
